Read-outs that look alike come from different tables or passages of the source.
Experiments:
[1] = system: MHC class I molecules of T1 cells (human lymphoma cell line 174×CEM.); assay: Effect on expression of MHC class I from T1 cells (flow cytometry, MFI); format: cell-based; settings: 3 days culture
Summary of the method: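 EC20 is the compound level that lowers MHC class I MFI by 20% relative to compound-free cultures. Read-out was flow cytometry after FITC W6/32 staining.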

mouse splenic cells = assay: Inhibitory action on blastogenesis of mouse splenic cells ([3H]-thymidine incorporation); format: cell-based; settings: Mus musculus, Lymphocyte, 72 hours
Procedure: Inhibitory Action on Blastogenesis of Mouse Splenic Cells
The spleen was excised from each of BALB/c mice (Charles River Japan; female; 10-week-old), and it was allowed to pass through a mesh to obtain a single cell suspension. This single cell suspension was prepared to be 1.0×10^6 cells/ml. Thereafter, 200 μl of the suspension was fractionated into each well of a 96-well plate. Thereafter, as blastogenic stimulation, 5 μg/ml concanavalin A (Pharmacia) or 25 μg/ml Escherichia coli-derived lipopolysaccharide (DIFCO) was added to the well, and then, a solution containing a test compound with each different concentration was further added thereto at an amount of 20 μl/well. The obtained mixture was cultured at 37° C. for 72 hours in an incubator containing 5% carbon dioxide. Thereafter, a 1 μCi/10 μl/well [^3H]-thymidine solution was added thereto 64 hours after initiation of the culture. After completion of the culture (72 hours later), the cells were captured on a filter using a cell harvester, and they were then dried. Thereafter, scintillator was added thereto, and the radioactivity of [^3H]-thymidine incorporated into the cells was then measured using a liquid scintillation counter. The inhibition rate of the DNA synthesis was calculated using the aforementioned formula (3). Thereafter, the concentration of a test compound necessary for inhibition of 50% (IC50 value) was obtained.

BALB/c mice = assay: Effect on mouse delayed-type hypersensitivity reaction (DTH reaction), swelling of the sole; format: in vivo; settings: Oral
Procedure: Effect on Mouse Delayed-Type Hypersensitivity Reaction (DTH Reaction)
1.0×10^5 sheep erythrocytes (Nippon Seibutsu Zairyo Center, Co., Ltd.) were administered to each of BALB/c mice (Charles River Japan, Inc.; female; 8-week-old) by intravenous injection for sensitization. From the day of administration of the sheep erythrocytes, a test compound was administered to the mouse. As a control, a 0.5% carboxymethyl cellulose (CMC)-Na solution and a normal saline solution used as solvents were administered to the same type of mouse via oral administration or intraperitoneal administration. Five days after the antigen sensitization, 1.0×10^8 sheep erythrocytes were subcutaneously injected into the sole of the mouse. 24 hours later, the thickness of the sole was measured. The value obtained by subtracting the mean value of the thicknesses of the soles of mice, to which a normal saline solution had been administered instead of the sheep erythrocytes, from the above measurement value, was defined as swelling of the sole generated as a result of the DTH reaction. The inhibition rate of the swelling of the sole caused by the DTH reaction was calculated using the following formula (5). The amount of the test compound necessary for inhibition of 50% (ED50 value) was obtained as the activity of the test compound to inhibit the DTH reaction. It is to be noted that cyclosporin A was used as a positive control.
[formula] • Eexp: Swelling of sole of mouse to which test compound was administered • Cexp: Swelling of sole of mouse to which solvent was administered

CD83 = assay: Expression of antigen-presenting and costimulatory molecules of human peripheral blood-derived dendritic cells: CD83; format: cell-based
Procedure: (§1) Action on Expression of Antigen-Presenting Molecules and Costimulatory Molecules of Human Peripheral Blood-Derived Dendritic Cells
The dendritic cells obtained by the same method as in Test Example 2 were suspended in RPMI 1640 comprising 10% FCS containing 500 U/ml GM-CSF, 50 ng/ml IL-4, and 100 U/ml human recombinant tumor necrosis factor (2.5×10^6 cells/ml). Thereafter, the suspension was inoculated into a 6-well plate at an amount of 2.0 ml/well, and the test compound was then added thereto. The mixture was cultured at 37° C. for 3 days in an incubator containing 5% carbon dioxide. Thereafter, the suspended cells were recovered. The cells were then stained with fluoroisothiocyanate-labeled mouse monoclonal antibodies reacting with MHC class I (Bechman Coulter), CD1a (Immunotech), CD40 (Pharmingen), CD80 (Pharmingen), and CD83 (Immunotech). Thereafter, mean fluorescence intensity and the ratio of positive cells were measured by flow cytometry. The expression level was calculated by the formula “the mean fluorescence intensity x the ratio of positive cells,” and the inhibition rate of the surface antigen expression level of dendritic cells was then obtained by the following formula (8).
[formula] • Eexp: Expression level of surface antigens of dendritic cells cultured in the presence of test compound • Cexp: Expression level of surface antigens of dendritic cells cultured in the absence of test compound

CD1a = assay: Expression of antigen-presenting and costimulatory molecules of human peripheral blood-derived dendritic cells: CD1a; format: cell-based; settings: Analyte 1 (dendritic cells of one healthy subject), 3 days
Procedure: as §1
The dendritic cells obtained by the same method as in Test Example 2 were suspended in RPMI 1640 comprising 10% FCS containing 500 U/ml GM-CSF, 50 ng/ml IL-4, and 100 U/ml human recombinant tumor necrosis factor (2.5×10^6 cells/ml). Thereafter, the suspension was inoculated into a 6-well plate at an amount of 2.0 ml/well, and the test compound was then added thereto. The mixture was cultured at 37° C. for 3 days in an incubator containing 5% carbon dioxide. Thereafter, the suspended cells were recovered. The cells were then stained with fluoroisothiocyanate-labeled mouse monoclonal antibodies reacting with MHC class I (Bechman Coulter), CD1a (Immunotech), CD40 (Pharmingen), CD80 (Pharmingen), and CD83 (Immunotech). Thereafter, mean fluorescence intensity and the ratio of positive cells were measured by flow cytometry. The expression level was calculated by the formula “the mean fluorescence intensity x the ratio of positive cells,” and the inhibition rate of the surface antigen expression level of dendritic cells was then obtained by the following formula (8). […]

CC(C)NC(=O)Nc1nc2nccc(-c3cccs3)n2n1 [Example 029, 1-isopropyl-3-(7-thiophen-2-yl[1,2,4]triazolo[1,5-a]pyrimidin-2-yl)urea]
EC20 (concentration necessary for suppressing 20% of the expression level of MHC class I molecules) [1]: 234 nM
IC50 (mouse splenic cells; 5 μg/ml concanavalin A, read-out: Lymphocyte blastogenesis IC50 (μM), ConA stimulation): 0.71 µM
IC50 (mouse splenic cells; 25 μg/ml Escherichia coli-derived lipopolysaccharide, read-out: Lymphocyte blastogenesis IC50 (μM), LPS stimulation): 0.3 µM
Inhibition rate (%) of swelling of the sole (BALB/c mice; administration period 7 days, 50 mg/kg/single administration): 37.0%
Inhibition rate (%) of swelling of the sole (BALB/c mice; administration period 7 days, 100 mg/kg/single administration): 49.5%
Inhibition rate (%) of swelling of the sole (BALB/c mice; administration period 8 days, 50 × 2 (50 mg/kg, twice a day)): 80.0%
Expression inhibition rate by test compound (%), CD83 (CD83; Analyte 1, 3 days): 62.6%
Expression inhibition rate by test compound (%), CD83 (CD83; Analyte 2, 3 days): 88.6%
Expression inhibition rate by test compound (%), CD83 (CD83; Analyte 3, 3 days): 42.7%
Expression inhibition rate by test compound (%), CD1a (CD1a): 55.6%

From patent US7598244B2, “[1,2,4]triazolo[1,5,a]pyrimidin-2-ylurea derivative and use thereof” (Nippon Kayaku Kabushiki Kaisha, priority 2003, dated 2009)
